Key:
Assay in all cases: relative viability (nuclei count vs DMSO), 5 days (fraction); higher = more cells survive
NCI-H1975 = tested on: NCI-H1975
Outline: (§1)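 Dosing by pin tool came one day after lung cancer cell lines were seeded in 1536-well plates, using either one drug or a fixed anchor-drug dose plus five library-drug doses (not always all listed) in √10 steps. After 5 days, nuclei were counted on 4× images. Relative viability is treated-well nuclei count divided by vehicle-well nuclei count, and values are medians of duplicate plates.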

NCI-H1792 = tested on: NCI-H1792
Outline: as §1

COR-L 105 = tested on: COR-L 105
Outline: as §1

NCI-H1437 = tested on: NCI-H1437
Outline: as §1

SW 1573 = tested on: SW 1573
Outline: as §1

NCI-H1355 = tested on: NCI-H1355
Outline: as §1

NCI-H727 = tested on: NCI-H727
Outline: as §1

NCI-H1915 = tested on: NCI-H1915
Outline: as §1

LCLC-103H = tested on: LCLC-103H
Outline: as §1

NCI-H2228 = tested on: NCI-H2228
Outline: as §1

NCI-H2009 = tested on: NCI-H2009
Outline: as §1

SK-LU-1 = tested on: SK-LU-1
Outline: as §1

HOP-62 = tested on: HOP-62
Outline: as §1

CAL-12T = tested on: CAL-12T
Outline: as §1

HCC-366 = tested on: HCC-366
Outline: as §1

NCI-H23 = tested on: NCI-H23
Outline: as §1

A-427 = tested on: A-427
Outline: as §1

NCI-H1395 = tested on: NCI-H1395
Outline: as §1

HARA = tested on: HARA
Outline: as §1

NCI-H1755 = tested on: NCI-H1755
Outline: as §1

NCI-H460 = tested on: NCI-H460
Outline: as §1

EMC-BAC-2 = tested on: EMC-BAC-2
Outline: as §1

HCC-827 = tested on: HCC-827
Outline: as §1

O=C(O)c1ccc(-c2c[nH]c3ncc(-c4ccccc4)cc23)cc1C1CCCC1 + CC(=O)c1c(C)c2cnc(Nc3ccc(N4CCNCC4)cn3)nc2n(C2CCCC2)c1=O [Palbociclib] (partner 0.5 µM) showed a relative viability (NCI-H1975; first compound 0.04 µM) of 0.588, a relative viability (NCI-H1975; first compound 0.1265 µM) of 0.55 and a relative viability (NCI-H1975; first compound 0.4 µM) of 0.585. For the same molecule, the relative viability (NCI-H1975; first compound 1.265 µM) was 0.475, the relative viability (NCI-H1792; first compound 0.1265 µM) was 0.681 and the relative viability (NCI-H1792; first compound 0.4 µM) was 0.657. The relative viability (NCI-H1792; first compound 1.265 µM) was 0.691, the relative viability (COR-L 105; first compound 0.04 µM) was 0.422 and the relative viability (COR-L 105; first compound 0.1265 µM) was 0.392. It also gave a relative viability (COR-L 105; first compound 0.4 µM) of 0.349, a relative viability (COR-L 105; first compound 1.265 µM) of 0.411 and a relative viability (NCI-H1437; first compound 0.04 µM) of 0.326. The relative viability (NCI-H1437; first compound 0.1265 µM) was 0.319, the relative viability (NCI-H1437; first compound 0.4 µM) was 0.311 and the relative viability (NCI-H1437; first compound 1.265 µM) was 0.193. The relative viability (SW 1573; first compound 0.04 µM) was 0.442, the relative viability (SW 1573; first compound 0.1265 µM) was 0.355 and the relative viability (SW 1573; first compound 0.4 µM) was 0.309. For the same molecule, the relative viability (SW 1573; first compound 1.265 µM) was 0.268, the relative viability (NCI-H1355; first compound 0.04 µM) was 0.393 and the relative viability (NCI-H1355; first compound 0.1265 µM) was 0.406. For the same molecule, the relative viability (NCI-H1355; first compound 0.4 µM) was 0.407, the relative viability (NCI-H1355; first compound 1.265 µM) was 0.395 and the relative viability (NCI-H727; first compound 0.04 µM) was 0.676. It also gave a relative viability (NCI-H727; first compound 0.1265 µM) of 0.662, a relative viability (NCI-H727; first compound 0.4 µM) of 0.652 and a relative viability (NCI-H727; first compound 1.265 µM) of 0.638. For the same molecule, the relative viability (NCI-H1915; first compound 0.04 µM) was 0.553, the relative viability (NCI-H1915; first compound 0.1265 µM) was 0.527 and the relative viability (NCI-H1915; first compound 0.4 µM) was 0.452. For the same molecule, the relative viability (NCI-H1915; first compound 1.265 µM) was 0.428, the relative viability (LCLC-103H; first compound 0.04 µM) was 0.412 and the relative viability (LCLC-103H; first compound 0.1265 µM) was 0.486. The relative viability (LCLC-103H; first compound 0.4 µM) was 0.465, the relative viability (LCLC-103H; first compound 1.265 µM) was 0.469 and the relative viability (NCI-H2228; first compound 0.04 µM) was 0.885. The relative viability (NCI-H2228; first compound 0.1265 µM) was 0.736, the relative viability (NCI-H2228; first compound 0.4 µM) was 0.886 and the relative viability (NCI-H2228; first compound 1.265 µM) was 0.5. For the same molecule, the relative viability (NCI-H2009; first compound 0.04 µM) was 0.152, the relative viability (NCI-H2009; first compound 0.1265 µM) was 0.246 and the relative viability (NCI-H2009; first compound 0.4 µM) was 0.175. For the same molecule, the relative viability (NCI-H2009; first compound 1.265 µM) was 0.209, the relative viability (SK-LU-1; first compound 0.04 µM) was 0.358 and the relative viability (SK-LU-1; first compound 0.1265 µM) was 0.381. It also gave a relative viability (SK-LU-1; first compound 0.4 µM) of 0.366, a relative viability (SK-LU-1; first compound 1.265 µM) of 0.359 and a relative viability (HOP-62; first compound 0.04 µM) of 0.426. The relative viability (HOP-62; first compound 0.1265 µM) was 0.414, the relative viability (HOP-62; first compound 0.4 µM) was 0.443 and the relative viability (HOP-62; first compound 1.265 µM) was 0.434. The relative viability (CAL-12T; first compound 0.04 µM) was 0.496, the relative viability (CAL-12T; first compound 0.1265 µM) was 0.442 and the relative viability (CAL-12T; first compound 0.4 µM) was 0.499. The relative viability (CAL-12T; first compound 1.265 µM) was 0.384, the relative viability (HCC-366; first compound 0.04 µM) was 0.442 and the relative viability (HCC-366; first compound 0.1265 µM) was 0.43. It also gave a relative viability (HCC-366; first compound 0.4 µM) of 0.416, a relative viability (HCC-366; first compound 1.265 µM) of 0.346 and a relative viability (NCI-H23; first compound 0.04 µM) of 0.577. The relative viability (NCI-H23; first compound 0.1265 µM) was 0.491, the relative viability (NCI-H23; first compound 0.4 µM) was 0.483 and the relative viability (NCI-H23; first compound 1.265 µM) was 0.308. The relative viability (A-427; first compound 0.04 µM) was 0.536, the relative viability (A-427; first compound 0.1265 µM) was 0.526 and the relative viability (A-427; first compound 0.4 µM) was 0.485. The relative viability (A-427; first compound 1.265 µM) was 0.48, the relative viability (NCI-H1395; first compound 0.04 µM) was 0.567 and the relative viability (NCI-H1395; first compound 0.1265 µM) was 0.66. For the same molecule, the relative viability (NCI-H1395; first compound 0.4 µM) was 0.618, the relative viability (NCI-H1395; first compound 1.265 µM) was 0.567 and the relative viability (HARA; first compound 0.04 µM) was 0.308. It also gave a relative viability (HARA; first compound 0.1265 µM) of 0.267, a relative viability (HARA; first compound 0.4 µM) of 0.248 and a relative viability (HARA; first compound 1.265 µM) of 0.216. For the same molecule, the relative viability (NCI-H1755; first compound 0.04 µM) was 0.434, the relative viability (NCI-H1755; first compound 0.1265 µM) was 0.495 and the relative viability (NCI-H1755; first compound 0.4 µM) was 0.417. For the same molecule, the relative viability (NCI-H1755; first compound 1.265 µM) was 0.48, the relative viability (NCI-H460; first compound 0.04 µM) was 0.274 and the relative viability (NCI-H460; first compound 0.1265 µM) was 0.203. For the same molecule, the relative viability (NCI-H460; first compound 0.4 µM) was 0.23, the relative viability (NCI-H460; first compound 1.265 µM) was 0.146 and the relative viability (EMC-BAC-2; first compound 0.04 µM) was 0.534. It also gave a relative viability (EMC-BAC-2; first compound 0.1265 µM) of 0.544, a relative viability (EMC-BAC-2; first compound 0.4 µM) of 0.529 and a relative viability (EMC-BAC-2; first compound 1.265 µM) of 0.519. It also gave a relative viability (HCC-827; first compound 0.04 µM) of 0.354, a relative viability (HCC-827; first compound 0.1265 µM) of 0.474 and a relative viability (HCC-827; first compound 0.4 µM) of 0.434. For the same molecule, the relative viability (HCC-827; first compound 1.265 µM) was 0.328.
